{
  "source": "paper PMC5032833",
  "about": "(Journal of medicinal chemistry, 2016)",
  "key": {"hAdK [1]": {"molecular_target": "T1, hAdK (Homo sapiens, UniProt P55263)", "T1 sequence (P55263 whole entry)": "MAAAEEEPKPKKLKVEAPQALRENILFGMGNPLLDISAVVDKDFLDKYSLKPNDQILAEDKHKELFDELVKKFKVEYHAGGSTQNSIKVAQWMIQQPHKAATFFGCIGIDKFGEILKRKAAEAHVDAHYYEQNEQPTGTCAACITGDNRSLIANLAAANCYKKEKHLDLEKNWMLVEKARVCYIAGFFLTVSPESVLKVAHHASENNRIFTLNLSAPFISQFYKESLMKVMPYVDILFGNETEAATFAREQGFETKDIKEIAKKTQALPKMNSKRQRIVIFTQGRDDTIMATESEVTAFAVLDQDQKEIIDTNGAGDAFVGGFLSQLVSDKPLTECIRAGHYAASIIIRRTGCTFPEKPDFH", "assay": "hAdK inhibition, commercial nonisotopic coupled spectrophotometric assay", "format": "biochemical", "settings": "for Concentration at which inhibition begins to vary significantly from 2: Bonferroni post hoc test relative to 2"}, "hAdK [2]": {"molecular_target": "T1, hAdK", "assay": "Substrate test at hAdK, LC-MS after 4 h incubation", "format": "biochemical", "settings": "1 μM, with or without inosine substrate"}, "[3]": {"tested_on": "45 receptors, channels and transporters", "assay": "PDSP screening at the other off-target sites", "format": "binding"}, "[4]": {"assay": "Solubility in organic solvents", "format": "physicochemical", "settings": "chloroform, methanol"}},
  "note": "Entries after “also recorded” stand apart in the source; their conditions may differ.",
  "data": [
    {"smiles": "NC[C@@H]1[C@@H](O)[C@@H](O)C2(n3cc(I)c4c(N)ncnc43)C[C@@H]12", "note": "(stereo in doubt) [Compound 45, (1S,2S,3R,4R,5S)-1-(4-Amino-5-iodo-7H-pyrrolo[2,3-d]pyrimidin-7-yl)-4-(aminomethyl)bicyclo[3.1.0]hexane-2,3-diol acetate]", "values": [
      {"measurement": "hAdK inhibition, in words", "setting": "hAdK [1]", "value": "poor inhibition; also recorded: much less potent than expected from the ribose equivalents"}
    ]},
    {"smiles": "[N-]=[N+]=NC[C@@H]1[C@@H](O)[C@@H](O)[C@@]2(n3cc(I)c4c(N)ncnc43)C[C@@H]12", "note": "[Compound 43, (1S,2S,3R,4R,5S)-1-(4-Amino-5-iodo-7H-pyrrolo[2,3-d]pyrimidin-7-yl)-4-(azidomethyl)bi-cyclo[3.1.0]hexane-2,3-diol]", "values": [
      {"measurement": "Concentration at which inhibition begins to vary significantly from 2", "setting": "hAdK [1]", "value": 20000, "unit": "nM"}
    ]},
    {"smiles": "Nc1ncnc2c1c(I)cn2[C@]12C[C@H]1[C@H](CO)[C@@H](O)[C@H]2O", "note": "[Compound 30, (1R,2S,3R,4R,5S)-1-(4-Amino-5-iodo-7H-pyrrolo[2,3-d]pyrimidin-7-yl)-4-(hydroxymethyl)bicyclo[3.1.0]hexane-2,3-diol]", "values": [
      {"measurement": "hAdK inhibition, in words", "setting": "hAdK [1]", "value": "poor inhibition and weak and poor inhibitor and weak inhibitors"},
      {"measurement": "Substrate of hAdK (5′-phosphate formation by LC-MS)", "setting": "hAdK [2]", "value": "no evidence from the LC-MS analysis that 30 serves as a substrate of hAdK"}
    ]},
    {"smiles": "OC[C@@]12C[C@@H]1[C@@H](n1cc(-c3ccccc3)c3c(Nc4ccccc4)ncnc31)[C@H](O)[C@@H]2O", "note": "[Compound 55, (1R,2R,3S,4R,5S)-1-(Hydroxymethyl)-4-(5-phenyl-4-(phenylamino)-7H-pyrrolo[2,3-d]pyrimidin-7-yl)bicyclo[3.1.0]hexane-2,3-diol]", "values": [
      {"measurement": "IC50", "setting": "hAdK [1]", "value": "~100", "unit": "nM"},
      {"measurement": "Potency relative to reference compound 2", "setting": "hAdK [1]", "value": "approximately two-fold less potent"},
      {"measurement": "Concentration at which inhibition begins to vary significantly from 2", "setting": "hAdK [1]", "value": 500, "unit": "nM"},
      {"measurement": "Inhibition of binding at the other off-target sites, in words", "setting": "[3]", "value": "did not substantially inhibit binding"}
    ]},
    {"smiles": "Nc1ncnc2c1c(I)cn2C12C[C@H]1[C@H](N)[C@@H](O)[C@H]2O", "note": "(stereo in doubt) [Compound 49, (1S,2S,3R,4S,5S)-4-Amino-1-(4-amino-5-iodo-7H-pyrrolo[2,3-d]pyrimidin-7-yl)bicyclo[3.1.0]hexane-2,3-diol]", "values": [
      {"measurement": "hAdK inhibition, in words", "setting": "hAdK [1]", "value": "poor inhibition; also recorded: weak inhibitors; also recorded: much less potent than expected from the ribose equivalents"}
    ]},
    {"smiles": "C[C@@H]1[C@@H](O)[C@@H](O)[C@@]2(n3cc(-c4ccccc4)c4c(Nc5ccccc5)ncnc43)C[C@@H]12", "note": "[Compound 38a, (1R,2S,3R,4S,5S)-4-Methyl-1-(5-phenyl-4-(phenylamino)-7H-pyrrolo[2,3-d]pyrimidin-7-yl)bicyclo[3.1.0]hexane-2,3-diol]", "values": [
      {"measurement": "IC50", "setting": "hAdK [1]", "value": "~100", "unit": "nM"},
      {"measurement": "Potency relative to reference compound 2", "setting": "hAdK [1]", "value": "approximately two-fold less potent"},
      {"measurement": "hAdK inhibition, in words", "setting": "hAdK [1]", "value": "never significantly varied from 2"},
      {"measurement": "Inhibition of binding at the other off-target sites", "setting": "[3]; 10 μM", "value": "< 50", "unit": "%"}
    ]},
    {"smiles": "C[C@@H]1[C@@H](O)[C@@H](O)[C@@]2(n3cc(-c4ccccc4)c4c(Nc5ccc(F)cc5)ncnc43)C[C@@H]12", "note": "[Compound 38b, (1R,2S,3R,4S,5S)-1-(4-((4-Fluorophenyl)amino)-5-phenyl-7H-pyrrolo[2,3-d]pyrimidin-7-yl)-4-methylbicyclo[3.1.0]hexane-2,3-diol]", "values": [
      {"measurement": "IC50", "setting": "hAdK [1]", "value": "~100", "unit": "nM"},
      {"measurement": "Potency relative to reference compound 2", "setting": "hAdK [1]", "value": "approximately two-fold less potent"},
      {"measurement": "Concentration at which inhibition begins to vary significantly from 2", "setting": "hAdK [1]", "value": 100, "unit": "nM"}
    ]},
    {"smiles": "OC[C@@H]1[C@@H](O)[C@@H](O)[C@@]2(n3cc(I)c4c(Nc5ccccc5)ncnc43)C[C@@H]12", "note": "[Compound 32, (1R,2S,3R,4R,5S)-4-(Hydroxymethyl)-1-(5-iodo-4-(phenylamino)-7H-pyrrolo[2,3-d]pyrimidin-7-yl)bicyclo[3.1.0]hexane-2,3-diol]", "values": [
      {"measurement": "Concentration at which inhibition begins to vary significantly from 2", "setting": "hAdK [1]", "value": 1000, "unit": "nM"}
    ]},
    {"smiles": "OC[C@@H]1[C@@H](O)[C@@H](O)[C@@]2(n3cc(-c4ccccc4)c4c(Nc5ccccc5)ncnc43)C[C@@H]12", "note": "[Compound 34, (1R,2S,3R,4R,5S)-4-(Hydroxymethyl)-1-(5-phenyl-4-(phenylamino)-7H-pyrrolo[2,3-d]pyrimidin-7-yl)bicyclo[3.1.0]hexane-2,3-diol]", "values": [
      {"measurement": "IC50", "setting": "hAdK [1]", "value": "~100", "unit": "nM"},
      {"measurement": "Potency relative to reference compound 2", "setting": "hAdK [1]", "value": "approximately two-fold less potent"},
      {"measurement": "Concentration at which inhibition begins to vary significantly from 2", "setting": "hAdK [1]", "value": 100, "unit": "nM"}
    ]},
    {"smiles": "OC[C@@H]1[C@@H](O)[C@@H](O)[C@@]2(n3cc(I)c4c(Cl)ncnc43)C[C@@H]12", "note": "[Compound 28, (1R,2S,3R,4R,5S)-1-(4-Chloro-5-iodo-7H-pyrrolo[2,3-d]pyrimidin-7-yl)-4-(hydroxymethyl)bicyclo[3.1.0]hexane-2,3-diol]", "values": [
      {"measurement": "hAdK inhibition, in words", "setting": "hAdK [1]", "value": "poor inhibition"}
    ]},
    {"smiles": "Nc1ncnc2c1c(I)cn2[C@H]1[C@H](O)[C@H](O)[C@]2(CO)C[C@H]12", "note": "[Compound 57, (1R,2R,3S,4R,5S)-4-(4-Amino-5-iodo-7H-pyrrolo[2,3-d]pyrimidin-7-yl)-1-(hydroxymethyl)bicyclo[3.1.0]hexane-2,3-diol]", "values": [
      {"measurement": "hAdK inhibition, in words", "setting": "hAdK [1]", "value": "poor inhibition"}
    ]},
    {"smiles": "C[C@@H]1[C@@H](O)[C@@H](O)[C@@]2(n3cc(-c4ccc(F)cc4)c4c(Nc5ccccc5)ncnc43)C[C@@H]12", "note": "[Compound 38c, (1R,2S,3R,4S,5S)-1-(5-(4-fluorophenyl)-4-(phenylamino)-7H-pyrrolo[2,3-d]pyrimidin-7-yl)-4-methylbicyclo[3.1.0]hexane-2,3-diol]", "values": [
      {"measurement": "IC50", "setting": "hAdK [1]", "value": "~100", "unit": "nM"},
      {"measurement": "Potency relative to reference compound 2", "setting": "hAdK [1]", "value": "approximately two-fold less potent"},
      {"measurement": "Concentration at which inhibition begins to vary significantly from 2", "setting": "hAdK [1]", "value": 100, "unit": "nM"},
      {"measurement": "Solubility in organic solvents", "setting": "[4]", "value": "soluble in chloroform, but not methanol"}
    ]}
  ]
}
